Experimental data: patent US9822138B2, “Antiviral beta-amino acid ester phosphodiamide compounds” (Merck Sharp & Dohme Corp., priority 2015, dated 2017)
Like-named read-outs stand apart in the source and are kept apart here.

Experiments:
HIV-1 (H9/IIIB strain) = assay: microbe, parasite or virus in culture; type: cell-based; conditions: MT4-GFP cells infected with HIV-1 H9/IIIB, inhibition of reproductive ratio R0
Protocol: Assessing Antiviral Potency in a Multiple Round HIV-1 Infection Assay (Viking Assay)
The antiviral activity of the tenofovir prodrugs of the Examples herein was assessed in an assay that measures the rate of replication of HIV in cell culture, termed the Viking assay (Viral KINetics in Green cells) and performed as follows. HIV-1 replication was monitored using MT4-gag-GFP clone D3 (hereafter designated MT4-GFP), which are MT-4 cells modified to harbor a GFP reporter gene, the expression of which is dependent on the HIV-1 expressed proteins tat and rev. Productive infection of an MT4-GFP cell with HIV-1 results in GFP expression approximately 24 h post-infection. MT4-GFP cells were maintained at 37° C./5% CO2/90% relative humidity in RPMI 1640 supplemented with 10% fetal bovine serum, 100 U/ml penicillin/streptomycin, and 400 μg/ml G418 to maintain the reporter gene. For infections, MT4-GFP cells were placed in the same medium lacking G418 and infected overnight with HIV-1 (H9/IIIB strain) virus at an approximate multiplicity of infection of 0.01 in the same incubation conditions. Cells were then washed and re-suspended in either RPMI 1640 supplemented with 10% or 50% normal human serum (NHS) at 1.6×10^5 cells/mL (10% NHS or 50% NHS, respectively). Compound plates were prepared by dispensing compounds dissolved in DMSO into wells of 384 well poly-D-lysine-coated plates (0.2 μl/well) using an ECHO acoustic dispenser. Each compound was tested in a 10-point serial 3-fold dilution (typical final concentrations: 8.4 μM-0.42 nM). Controls included no inhibitor (DMSO only) and a combination of three antiviral agents (efavirenz, indinavir, an in-house integrase strand transfer inhibitor at final concentrations of 4 μM each). Cells were added ([…]) to compound plates and the infected cells were maintained at 37° C./5% CO2/90% relative humidity.
Infected cells were quantified at two time points, ˜48 h and ˜72 h post-infection, by counting the number of green cells in each well using an Acumen eX3 scanner. […] Inhibition of R0 is calculated for each well, and IC50s determined by non-linear 4-parameter curve fitting.

[1] = Prodrug stability assay in bio-relevant media (FaSSIF with pancreatin; GI tract stability); type: in vitro ADME; conditions: parent prodrug area at 5 h divided by area at 0 h; 37° C.; 0.5 mg/mL pancreatin in FaSSIF
Protocol: Prodrug Stability Assay in Bio-Relevant Media
The following assay was employed to evaluate the stability of the prodrugs in simulated gastrointestinal tract conditions. Preparation of fasted state simulated intestinal fluid (FaSSIF) using Phares SIF Powder was carried out according to protocols from Phare Drug Delivery AG (Baselland, Switzerland). For sample preparation, 10 μL stock solutions (10 mM) of prodrug substance in DMSO was added to 990 μL of 0.5 mg/mL Pancreatin solution (Fisher CAS#8049-47-6) in FaSSIF. Two samples were prepared for each compound at initial. If the sample was clear solution at the beginning, ran one sample directly as initial by HPLC; if the sample was not clear at starting, diluted the sample by 100% ACN. Put the other sample under 37° C. and observed the sample at 5 h time-point. At 5 h time point, if the sample was clear solution then performed HPLC analysis directly; if it was not clear solution, diluted the sample by 100% ACN and assayed by HPLC. All the samples were vortexed for 3 min and observed before injection. For the diluted samples, the area will be multiplied by a factor when data analysis. The analysis was carried out with an Agilent 1100 series HPLC with autosampler. The column was usually a Poroshell 120 EC-C18, 4.6×50 mm, 2.7 μm. The flow rate was 1.8 mL/min, and the injection volume was 5 or 10 μL. UV detection was in the range 210-400 nm. The mobile phase consisted of solvent A (water plus 10 mM tetrabutylammonium bromide) and solvent B (acetonitrile) with a gradient of 90% solvent A at 0 min changing to 95% solvent B over 6 min, maintained for 1.5 min, then reverting to 90% solvent A over 1.6 min. The area of the parent in prodrug at 5 h time point was divided by the area of the parent in prodrug at 0 h time point, to generate the % claimed parent ratio, which are summarized in Table 5 for GI Tract stability.

[2] = Human immunodeficiency virus 1, 10% normal human serum, read-out: Viking, IC50 (10% NHS)
[3] = Human immunodeficiency virus 1, 50% normal human serum, read-out: Viking, IC50 (50% NHS)
[4] = 10% normal human serum, read-out: Viking, IC50 (10% NHS)
[5] = 50% normal human serum, read-out: Viking, IC50 (50% NHS)
[6] = Human immunodeficiency virus 1, IIIB, 10% normal human serum, read-out: Viking, IC50 (10% NHS)
[7] = Human immunodeficiency virus 1, IIIB, 50% normal human serum, read-out: Viking, IC50 (50% NHS)

Row | Structure (SMILES) | IC50 (HIV-1 (H9/IIIB strain); [2]) [nM] | IC50 (HIV-1 (H9/IIIB strain); [3]) [nM] | GI Tract stability [1] [%] | IC50 (HIV-1 (H9/IIIB strain); [4]) [nM] | IC50 (HIV-1 (H9/IIIB strain); [5]) [nM] | IC50 (HIV-1 (H9/IIIB strain); [6]) [nM] | IC50 (HIV-1 (H9/IIIB strain); [7]) [nM]
1 | CC(C)OC(=O)CCNP(=O)(CO[C@H](C)Cn1cnc2c(N)ncnc21)N[C@@H](C)C(=O)OC(C)C (single isomer, unassigned) [Example 7A] | 26.4 | 44.1 | 98.7 | – | – | – | –
2 | CC(C)OC(=O)C[C@H](C)NP(=O)(CO[C@H](C)Cn1cnc2c(N)ncnc21)N[C@@H](C)C(=O)OC(C)C (single isomer, unassigned) [Example 8A] | – | – | 89.5 | 26.5 | 38.2 | – | –
3 | CC(C)OC(=O)C[C@@H](C)NP(=O)(CO[C@H](C)Cn1cnc2c(N)ncnc21)N[C@@H](C)C(=O)OC(C)C (single isomer, unassigned) [Example 9A] | – | – | 99.6 | 25.3 | 66.7 | – | –
4 | CC(C)OC(=O)[C@H](C)CNP(=O)(CO[C@H](C)Cn1cnc2c(N)ncnc21)N[C@@H](C)C(=O)OC(C)C (single isomer, unassigned) [Example 10A] | – | – | 54.8 | 10.6 | 97.2 | – | –
5 | CC(C)OC(=O)[C@@H](C)CNP(=O)(CO[C@H](C)Cn1cnc2c(N)ncnc21)N[C@@H](C)C(=O)OC1CCCC1 (single isomer, unassigned) [Example 11B] | – | – | 76.4 | 20.9 | 68.4 | – | –
6 | CC(C)OC(=O)[C@@H](C)CNP(=O)(CO[C@H](C)Cn1cnc2c(N)ncnc21)N[C@@H](C)C(=O)OC1CCC1 (single isomer, unassigned) [Example 12B] | – | – | 37.7 | 20.9 | 63.2 | – | –
7 | CC(C)OC(=O)[C@@H](C)CNP(=O)(CO[C@H](C)Cn1cnc2c(N)ncnc21)N[C@@H](C)C(=O)OC1CCCCC1 (single isomer, unassigned) [Example 13A] | – | – | 38.7 | 8.7 | 56.4 | – | –
8 | CC(C)COC(=O)[C@H](C)NP(=O)(CO[C@H](C)Cn1cnc2c(N)ncnc21)NC[C@H](C)C(=O)OC(C)C (single isomer, unassigned) [Example 14A] | – | – | 38.3 | – | – | 16.6 | 70.2
9 | CC(C)COC(=O)[C@H](C)NP(=O)(CO[C@H](C)Cn1cnc2c(N)ncnc21)NC[C@H](C)C(=O)OC(C)C (single isomer, unassigned) [Example 14B] | – | – | 60.6 | 15.7 | 51.6 | – | –
10 | CCCCOC(=O)[C@H](C)NP(=O)(CO[C@H](C)Cn1cnc2c(N)ncnc21)NC[C@H](C)C(=O)OC(C)C (single isomer, unassigned) [Example 15B] | – | – | 65.8 | 11.7 | 79.4 | – | –
11 | CCCCCOC(=O)[C@H](C)NP(=O)(CO[C@H](C)Cn1cnc2c(N)ncnc21)NC[C@H](C)C(=O)OC(C)C (single isomer, unassigned) [Example 16A] | – | – | 12.7 | – | – | 6.1 | 18.6
12 | CCCCCOC(=O)[C@H](C)NP(=O)(CO[C@H](C)Cn1cnc2c(N)ncnc21)NC[C@H](C)C(=O)OC(C)C (single isomer, unassigned) [Example 16B] | – | – | 56.2 | 7.3 | 28.3 | – | –
13 | CCCCCCCOC(=O)[C@H](C)NP(=O)(CO[C@H](C)Cn1cnc2c(N)ncnc21)NC[C@H](C)C(=O)OC(C)C (single isomer, unassigned) [Example 17A] | – | – | 30.5 | 6.5 | 43 | – | –
14 | CCCCCCCOC(=O)[C@H](C)NP(=O)(CO[C@H](C)Cn1cnc2c(N)ncnc21)NC[C@H](C)C(=O)OC(C)C (single isomer, unassigned) [Example 17B] | – | – | 0 | 2.2 | 12 | – | –
15 | CC(C)OC(=O)C[C@@H](C)NP(=O)(CO[C@H](C)Cn1cnc2c(N)ncnc21)N[C@H](C)C(=O)OC1CCC1 (single isomer, unassigned) [Example 18A] | 65 | 134 | 99.2 | – | – | – | –
